Columns and labels:
Assay in all cases: Ambit KinomeScan screening
Type in all cases: binding
Settings in all cases: CAL-130 10 μM
ROCK1 = biological target: T1, ROCK1 (Homo sapiens, UniProt Q13464)
T1 construct: unspecified tag (tagged kinase); purchased Ambit (KinomeScan screening)
Procedure, shortened: (§1)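 Read-out is % of control binding: the tagged kinase retained on an immobilized bait ligand when CAL-130 is present at 10 μM. A lower percentage reflects stronger compound interaction, and anything over 35% counts as no hit.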

HIPK1 = biological target: T2, HIPK1 (Homo sapiens, UniProt Q86Z02)
T2 construct: unspecified tag ('tagged kinases'); purchased Ambit (KinomeScan screening service)
Procedure, shortened: as §1

MEK3 = biological target: T3, MEK3 (Homo sapiens, UniProt P46734)
T3 construct: purchased Ambit (KinomeScan screening)
Procedure, shortened: as §1

MKNK2 = biological target: T4, MKNK2 (Homo sapiens, UniProt Q9HBH9)
T4 construct: unspecified tag ('tagged kinases'); purchased Ambit (KinomeScan screening)
Procedure, shortened: as §1

MAP3K15 = biological target: T5, MAP3K15 (Homo sapiens, UniProt Q6ZN16)
T5 construct: Ambit (KinomeScan screening)
Procedure, shortened: as §1

PIM2 = biological target: T6, PIM2 (Homo sapiens, UniProt Q9P1W9)
T6 construct: unspecified tag; purchased Ambit (KinomeScan screening panel)
Procedure, shortened: as §1

HIPK3 = biological target: T7, HIPK3 (Homo sapiens, UniProt Q9H422)
T7 construct: Ambit (KinomeScan screening)
Procedure, shortened: as §1

EGFR(L861Q) = biological target: T8, EGFR(L861Q) (Homo sapiens, UniProt P00533, L861Q)
T8 construct: unspecified tag; purchased Ambit (KinomeScan screening service)
Procedure, shortened: as §1

DCAMKL2 = biological target: T9, DCAMKL2 (Homo sapiens, UniProt Q8N568)
T9 construct: unspecified tag ("tagged kinases"); purchased Ambit (KinomeScan screening service)
Procedure, shortened: as §1

MAP3K1 = biological target: T10, MAP3K1 (Homo sapiens, UniProt Q13233)
T10 construct: Ambit (KinomeScan screening)
Procedure, shortened: as §1

DRAK2 = biological target: T11, DRAK2 (Homo sapiens, UniProt O94768)
T11 construct: unspecified tag ("tagged kinases"); purchased Ambit (KinomeScan screening service)
Procedure, shortened: as §1

BMPR2 = biological target: T12, BMPR2 (Homo sapiens, UniProt Q13873)
T12 construct: unspecified tag ("tagged kinases"); purchased Ambit (KinomeScan screening)
Procedure, shortened: as §1

RET(V804L) = biological target: T13, RET(V804L) (Homo sapiens, UniProt P07949, V804L)
T13 construct: tag (kind not specified); purchased Ambit (KinomeScan screening service)
Procedure, shortened: as §1

MARK2 = biological target: T14, MARK2 (Homo sapiens, UniProt Q7KZI7)
T14 construct: Ambit (KinomeScan screening)
Procedure, shortened: as §1

GRK1 = biological target: T15, GRK1 (Homo sapiens, UniProt Q15835)
T15 construct: unspecified tag ('tagged kinases'); purchased Ambit (KinomeScan screening service)
Procedure, shortened: as §1

GAK = biological target: T16, GAK (Homo sapiens, UniProt O14976)
T16 construct: unspecified tag ('tagged kinases'); purchased Ambit (KinomeScan screening service)
Procedure, shortened: as §1

HCK = biological target: T17, HCK (Homo sapiens, UniProt P08631)
T17 construct: unspecified tag ('tagged kinases'); purchased Ambit (KinomeScan screening service)
Procedure, shortened: as §1

AKT2 = biological target: T18, AKT2 (Homo sapiens, UniProt P31751)
T18 construct: purchased Ambit (KinomeScan screening)
Procedure, shortened: as §1

PRKD2 = biological target: T19, PRKD2 (Homo sapiens, UniProt Q9BZL6)
T19 construct: purchased Ambit (KinomeScan screening service)
Procedure, shortened: as §1

PRKD3 = biological target: T20, PRKD3 (Homo sapiens, UniProt O94806)
T20 construct: tag (kind not specified); purchased Ambit (KinomeScan screening service)
Procedure, shortened: as §1

p38-δ = biological target: T21, p38-δ (Homo sapiens, UniProt O15264)
T21 construct: purchased Ambit (KinomeScan screening service)
Procedure, shortened: as §1

FLT3 = biological target: T22, FLT3 (Homo sapiens, UniProt P36888)
T22 construct: unspecified tag; purchased Ambit (KinomeScan screening service)
Procedure, shortened: as §1

PRKD1 = biological target: T23, PRKD1 (Homo sapiens, UniProt Q15139)
T23 construct: purchased Ambit (KinomeScan screening service)
Procedure, shortened: as §1

SgK110 = biological target: T24, SgK110 (Homo sapiens, UniProt P0C264)
T24 construct: tag, kind not specified; purchased Ambit (KinomeScan screening service)
Procedure, shortened: as §1

PKN1 = biological target: T25, PKN1 (Homo sapiens, UniProt Q16512)
T25 construct: purchased Ambit (KinomeScan screening service)
Procedure, shortened: as §1

ABL1(F317L) = biological target: T26, ABL1(F317L) (Homo sapiens, UniProt P00519, F317L)
T26 construct: unspecified tag ("tagged kinases"); purchased Ambit (KinomeScan screening)
Procedure, shortened: as §1

PRP4 = biological target: T27, PRP4 (Homo sapiens, UniProt Q13523)
T27 construct: tag (kind not specified); purchased Ambit (KinomeScan screening service)
Procedure, shortened: as §1

NEK6 = biological target: T28, NEK6 (Homo sapiens, UniProt Q9HC98)
T28 construct: unspecified tag; purchased Ambit (KinomeScan screening panel)
Procedure, shortened: as §1

ICK = biological target: T29, ICK (Homo sapiens, UniProt Q9UPZ9)
T29 construct: Ambit (KinomeScan screening)
Procedure, shortened: as §1

MET(M1250T) = biological target: T30, MET(M1250T) (Homo sapiens, UniProt P08581, M1250T)
T30 construct: purchased Ambit (KinomeScan screening)
Procedure, shortened: as §1

TRKA = biological target: T31, TRKA (Homo sapiens, UniProt P04629)
T31 construct: unspecified tag (tagged kinase); purchased Ambit (KinomeScan screening)
Procedure, shortened: as §1

CSNK1E = biological target: T32, CSNK1E (Homo sapiens, UniProt P49674)
T32 construct: purchased Ambit (KinomeScan screening service)
Procedure, shortened: as §1

MAPKAPK2 = biological target: T33, MAPKAPK2 (Homo sapiens, UniProt P49137)
T33 construct: Ambit (KinomeScan screening)
Procedure, shortened: as §1

[1] = biological target: T34, EGFR(L747-S752DEL, P753S) (Homo sapiens, UniProt P00533, DEL747-752/P753S)
T34 construct: unspecified tag; purchased Ambit (KinomeScan screening service)
Procedure, shortened: as §1

MEK4 = biological target: T35, MEK4 (Homo sapiens, UniProt P45985)
T35 construct: purchased Ambit (KinomeScan screening)
Procedure, shortened: as §1

ABL2 = biological target: T36, ABL2 (Homo sapiens, UniProt P42684)
T36 construct: unspecified tag ("tagged kinases"); purchased Ambit (KinomeScan screening)
Procedure, shortened: as §1

T2 sequence (Q86Z02 whole entry): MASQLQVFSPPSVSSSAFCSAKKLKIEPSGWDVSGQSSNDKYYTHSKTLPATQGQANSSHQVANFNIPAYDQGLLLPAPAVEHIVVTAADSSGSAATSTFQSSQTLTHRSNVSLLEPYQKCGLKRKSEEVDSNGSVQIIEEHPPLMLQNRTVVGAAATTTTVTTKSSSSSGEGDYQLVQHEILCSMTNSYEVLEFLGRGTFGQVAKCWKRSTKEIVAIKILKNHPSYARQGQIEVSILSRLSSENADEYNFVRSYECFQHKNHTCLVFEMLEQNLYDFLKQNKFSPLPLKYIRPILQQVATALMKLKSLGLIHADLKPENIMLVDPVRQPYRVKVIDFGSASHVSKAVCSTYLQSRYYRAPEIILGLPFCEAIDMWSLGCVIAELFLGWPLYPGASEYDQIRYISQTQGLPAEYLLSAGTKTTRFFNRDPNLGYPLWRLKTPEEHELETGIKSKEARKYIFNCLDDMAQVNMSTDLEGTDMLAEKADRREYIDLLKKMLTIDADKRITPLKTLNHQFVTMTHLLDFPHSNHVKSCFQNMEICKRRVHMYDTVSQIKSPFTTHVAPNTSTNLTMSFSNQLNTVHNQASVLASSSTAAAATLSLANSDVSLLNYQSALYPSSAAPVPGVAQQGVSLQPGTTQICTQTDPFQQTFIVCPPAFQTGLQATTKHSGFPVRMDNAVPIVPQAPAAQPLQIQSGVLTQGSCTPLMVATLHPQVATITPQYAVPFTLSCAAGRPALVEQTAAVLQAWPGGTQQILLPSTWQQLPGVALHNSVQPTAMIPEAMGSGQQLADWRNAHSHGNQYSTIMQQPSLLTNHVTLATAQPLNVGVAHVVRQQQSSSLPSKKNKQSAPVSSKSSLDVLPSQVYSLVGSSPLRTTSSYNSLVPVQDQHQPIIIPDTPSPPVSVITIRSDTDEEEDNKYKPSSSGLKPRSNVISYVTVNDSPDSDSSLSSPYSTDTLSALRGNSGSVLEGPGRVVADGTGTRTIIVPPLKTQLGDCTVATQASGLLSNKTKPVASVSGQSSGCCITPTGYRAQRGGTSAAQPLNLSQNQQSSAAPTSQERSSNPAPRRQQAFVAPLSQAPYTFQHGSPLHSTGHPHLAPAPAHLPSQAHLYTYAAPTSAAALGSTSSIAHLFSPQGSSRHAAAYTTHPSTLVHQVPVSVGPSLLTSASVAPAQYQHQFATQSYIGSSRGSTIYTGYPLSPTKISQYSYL
T26 sequence (P00519 whole entry F317L): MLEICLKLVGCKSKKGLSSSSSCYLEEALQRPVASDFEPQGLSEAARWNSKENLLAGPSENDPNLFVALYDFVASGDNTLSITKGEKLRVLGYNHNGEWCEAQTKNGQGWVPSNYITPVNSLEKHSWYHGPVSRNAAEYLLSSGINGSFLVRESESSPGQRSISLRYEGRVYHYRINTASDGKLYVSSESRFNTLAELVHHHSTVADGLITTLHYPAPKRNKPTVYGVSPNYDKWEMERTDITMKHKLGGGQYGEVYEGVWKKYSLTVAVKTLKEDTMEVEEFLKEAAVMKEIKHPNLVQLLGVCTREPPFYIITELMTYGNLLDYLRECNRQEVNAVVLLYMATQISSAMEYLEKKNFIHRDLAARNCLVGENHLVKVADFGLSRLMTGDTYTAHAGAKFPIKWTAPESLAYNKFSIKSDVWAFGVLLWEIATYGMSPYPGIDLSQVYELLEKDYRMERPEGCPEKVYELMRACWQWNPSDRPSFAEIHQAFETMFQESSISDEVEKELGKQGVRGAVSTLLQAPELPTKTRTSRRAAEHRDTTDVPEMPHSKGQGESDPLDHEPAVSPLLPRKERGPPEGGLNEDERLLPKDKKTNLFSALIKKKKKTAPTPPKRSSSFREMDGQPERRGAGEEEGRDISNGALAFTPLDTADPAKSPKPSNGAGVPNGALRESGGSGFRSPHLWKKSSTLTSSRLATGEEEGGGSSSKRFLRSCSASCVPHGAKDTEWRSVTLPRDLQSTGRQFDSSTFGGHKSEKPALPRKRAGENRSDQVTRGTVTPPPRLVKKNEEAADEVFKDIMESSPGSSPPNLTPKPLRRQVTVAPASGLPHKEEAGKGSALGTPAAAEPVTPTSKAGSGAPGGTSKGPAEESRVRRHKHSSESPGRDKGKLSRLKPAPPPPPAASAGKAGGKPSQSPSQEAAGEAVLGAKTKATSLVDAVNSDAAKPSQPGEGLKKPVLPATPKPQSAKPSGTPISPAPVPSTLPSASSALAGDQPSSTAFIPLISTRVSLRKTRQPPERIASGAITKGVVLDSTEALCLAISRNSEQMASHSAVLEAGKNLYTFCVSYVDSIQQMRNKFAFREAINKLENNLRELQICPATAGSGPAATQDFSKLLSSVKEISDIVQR
T35 sequence (P45985 whole entry): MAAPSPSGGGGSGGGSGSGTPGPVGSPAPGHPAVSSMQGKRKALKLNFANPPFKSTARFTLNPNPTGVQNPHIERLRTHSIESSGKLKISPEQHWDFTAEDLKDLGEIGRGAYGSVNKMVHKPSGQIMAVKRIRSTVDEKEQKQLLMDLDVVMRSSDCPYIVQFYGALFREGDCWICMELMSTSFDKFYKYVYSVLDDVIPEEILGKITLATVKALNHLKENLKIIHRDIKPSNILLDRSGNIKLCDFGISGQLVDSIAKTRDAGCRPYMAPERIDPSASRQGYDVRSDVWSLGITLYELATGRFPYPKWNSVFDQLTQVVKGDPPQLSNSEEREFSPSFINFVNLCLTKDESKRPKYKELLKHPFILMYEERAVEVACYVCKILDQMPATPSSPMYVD
T15 sequence (Q15835 whole entry): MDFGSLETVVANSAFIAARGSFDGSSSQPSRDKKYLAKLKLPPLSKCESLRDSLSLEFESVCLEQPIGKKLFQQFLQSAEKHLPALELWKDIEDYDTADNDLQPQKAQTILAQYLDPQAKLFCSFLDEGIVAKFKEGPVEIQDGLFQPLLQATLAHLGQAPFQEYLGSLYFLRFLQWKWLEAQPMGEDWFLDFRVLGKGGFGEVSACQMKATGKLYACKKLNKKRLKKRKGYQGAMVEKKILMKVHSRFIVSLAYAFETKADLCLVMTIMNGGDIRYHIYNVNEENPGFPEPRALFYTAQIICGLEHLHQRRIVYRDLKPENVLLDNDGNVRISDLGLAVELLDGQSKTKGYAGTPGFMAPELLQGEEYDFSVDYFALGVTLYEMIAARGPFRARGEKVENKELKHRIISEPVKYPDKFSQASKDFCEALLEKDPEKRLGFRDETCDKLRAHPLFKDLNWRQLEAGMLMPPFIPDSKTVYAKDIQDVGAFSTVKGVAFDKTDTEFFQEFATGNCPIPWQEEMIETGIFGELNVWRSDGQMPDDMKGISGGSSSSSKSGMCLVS
T31 sequence (P04629 33-796): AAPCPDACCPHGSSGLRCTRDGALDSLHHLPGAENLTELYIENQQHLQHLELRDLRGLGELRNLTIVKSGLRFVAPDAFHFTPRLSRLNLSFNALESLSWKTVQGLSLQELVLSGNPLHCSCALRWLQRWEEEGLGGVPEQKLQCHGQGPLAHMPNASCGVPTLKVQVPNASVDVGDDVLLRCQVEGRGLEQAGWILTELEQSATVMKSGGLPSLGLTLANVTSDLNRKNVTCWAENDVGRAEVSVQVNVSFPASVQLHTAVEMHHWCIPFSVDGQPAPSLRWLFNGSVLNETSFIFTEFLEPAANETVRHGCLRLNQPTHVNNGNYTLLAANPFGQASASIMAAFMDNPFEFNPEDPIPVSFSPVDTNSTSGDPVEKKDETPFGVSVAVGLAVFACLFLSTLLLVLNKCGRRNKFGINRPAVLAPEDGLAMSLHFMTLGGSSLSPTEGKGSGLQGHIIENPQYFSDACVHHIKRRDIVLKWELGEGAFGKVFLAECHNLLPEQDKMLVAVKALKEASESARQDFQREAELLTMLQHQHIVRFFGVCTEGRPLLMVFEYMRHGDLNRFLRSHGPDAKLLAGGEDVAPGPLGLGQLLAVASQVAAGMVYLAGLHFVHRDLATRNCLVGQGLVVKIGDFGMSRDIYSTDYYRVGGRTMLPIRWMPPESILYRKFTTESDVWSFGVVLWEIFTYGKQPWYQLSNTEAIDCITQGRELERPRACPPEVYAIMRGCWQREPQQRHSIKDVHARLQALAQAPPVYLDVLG
T32 sequence (P49674 whole entry): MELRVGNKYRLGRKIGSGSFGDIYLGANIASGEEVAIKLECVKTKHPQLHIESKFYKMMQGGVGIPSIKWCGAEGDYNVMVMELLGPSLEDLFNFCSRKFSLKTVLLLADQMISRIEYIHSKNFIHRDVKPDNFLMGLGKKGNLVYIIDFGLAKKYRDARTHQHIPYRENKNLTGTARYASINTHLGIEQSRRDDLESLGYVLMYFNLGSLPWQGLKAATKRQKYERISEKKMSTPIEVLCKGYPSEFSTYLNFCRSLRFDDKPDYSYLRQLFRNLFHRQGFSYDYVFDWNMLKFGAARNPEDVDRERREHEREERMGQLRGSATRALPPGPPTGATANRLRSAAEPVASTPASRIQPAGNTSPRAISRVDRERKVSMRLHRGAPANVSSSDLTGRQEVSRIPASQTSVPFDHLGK
T6 sequence (Q9P1W9 whole entry): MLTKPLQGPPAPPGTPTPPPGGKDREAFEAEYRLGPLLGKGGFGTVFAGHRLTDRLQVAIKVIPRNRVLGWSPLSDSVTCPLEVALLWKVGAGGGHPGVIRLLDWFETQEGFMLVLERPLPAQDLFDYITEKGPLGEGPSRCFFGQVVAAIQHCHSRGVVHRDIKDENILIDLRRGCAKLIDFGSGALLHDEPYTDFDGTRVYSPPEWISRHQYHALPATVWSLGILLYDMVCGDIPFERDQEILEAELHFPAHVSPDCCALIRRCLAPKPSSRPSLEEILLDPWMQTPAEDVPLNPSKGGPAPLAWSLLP

Cc1ccccc1-n1c(C(C)Nc2nc(N)nc3nc[nH]c23)nc2cccc(C)c2c1=O (stereo not drawn) [CAL-130]
Percent of Control Binding (ROCK1): 100% | Percent of Control Binding (HIPK1): 100% | Percent of Control Binding (MEK3): 100% | Percent of Control Binding (MKNK2): 16% | Percent of Control Binding (MAP3K15): 100% | Percent of Control Binding (PIM2): 100% | Percent of Control Binding (HIPK3): 100% | Percent of Control Binding (EGFR(L861Q)): 100% | Percent of Control Binding (DCAMKL2): 100% | Percent of Control Binding (MAP3K1): 100% | Percent of Control Binding (DRAK2): 100% | Percent of Control Binding (BMPR2): 100% | Percent of Control Binding (RET(V804L)): 100% | Percent of Control Binding (MARK2): 100% | Percent of Control Binding (GRK1): 100% | Percent of Control Binding (GAK): 100% | Percent of Control Binding (HCK): 100% | Percent of Control Binding (AKT2): 100% | Percent of Control Binding (PRKD2): 100% | Percent of Control Binding (PRKD3): 100% | Percent of Control Binding (p38-δ): 100% | Percent of Control Binding (FLT3): 100% | Percent of Control Binding (PRKD1): 100% | Percent of Control Binding (SgK110): 100% | Percent of Control Binding (PKN1): 100% | Percent of Control Binding (ABL1(F317L)): 100% | Percent of Control Binding (PRP4): 100% | Percent of Control Binding (NEK6): 100% | Percent of Control Binding (ICK): 100% | Percent of Control Binding (MET(M1250T)): 100% | Percent of Control Binding (TRKA): 100% | Percent of Control Binding (CSNK1E): 100% | Percent of Control Binding (MAPKAPK2): 100% | Percent of Control Binding [1]: 100% | Percent of Control Binding (MEK4): 100% | Percent of Control Binding (ABL2): 100%
